From paper PMC8508980, “Design, Synthesis and Anticancer Profile of New 4-(1H-benzo[d]imidazol-1-yl)pyrimidin-2-amine-Linked Sulfonamide Derivatives with V600EBRAF Inhibitory Effect” (International Journal of Molecular Sciences, 2021) come the findings set out here.

Where two headings read alike, the source gives them in different places.

One test concerns the target CRAF (Homo sapiens, UniProt P04049). The test is described as follows: Reaction Biology kinase HotSpot enzyme assay. It is filed as biochemical. Particulars: 1 µM ATP, mean ± S.D. of two separate experiments. The protocol: Reaction Biology Corp. Kinase HotSpotTM service http://www.reactionbiology.com was used for screening of compounds IC50 Proﬁler Express for IC50 measurement. Assay protocol: In a ﬁnal reaction volume of 25 μL, kinase (5–10 mU) is incubated with 25 mM Tris pH 7.5, 0.02 mM EGTA, 0.66 mg/mL myelin basic protein, 10 mM magnesium acetate and [γ33P-ATP] (speciﬁc activity approx. 500 cpm/pmol, concentration as required). The reaction is initiated by the addition of the Mg-ATP mix. After incubation for 40 min at room temperature, the reaction is stopped by the addition of 5 μL of a 3% phosphoric acid solution. 10 μL of the reaction is then spotted onto a P30 ﬁltermat, and washed three times for 5 min in 75 mM phosphoric acid and once in methanol prior to drying and scintillation counting.

Another test deals with breast cancer cell lines. Put plainly: NCI 60 screen, sub-panel mean. Particulars: NCI-60, breast cancer sub-panel. It is filed as cell-based, human. The protocol: (§1) Anticancer profiling over a panel of 60 cancer cell lines was carried out at the National Cancer Institute (NCI), Bethesda, Maryland, USA, https://dtp.cancer.gov/discovery_development/nci-60/methodology.htm (Last visit 22 September 2021), using the standard procedure (detailed procedure is located in the Supplementary Information page 50 s).
(§2) NCI standard procedure for 60 cell lines assay
(§3) The human tumor cell lines of the cancer screening panel are grown in RPMI 1640 mediu m containing 5% fetal bovine serum and 2 mM L-glutamine. For a typical screening experiment, cells are inoculated into 96 well microtiter plates in 100 μL at plating densities ranging from 5,000 to 40,000 cells/well depending on the doubling time of individual cell lines. After cell inoculation, the microtiter plates are incubated at 37° C, 5 % CO2, 95 % air and 100 % relative humidity for 24 h prior to addition of experimental drugs.
(§4) After 24 h, two plates of each cell line are fixed in situ with TCA, to represent a measurement of the cell population for each cell line at the time of drug addition (Tz). Experimental drugs are solubilized in dimethyl sulfoxide at 400-fold the desired final maximum test concentration (10 µM) and stored frozen prior to use. At the time of drug addition, an aliquot of frozen concentrate is thawed and diluted to twice the desired final maximum test concentration with co mp lete medium containing 50 μg/ml gentamicin. Additional four, 10-fold or ½ log serial dilutions are made to provide a total of five drug concentrations plus control. Aliquots of 100 μl of these different drug dilutions are added to the appropriate microtiter wells already containing 100 μl of medium, resulting in the required final drug concentrations.
(§5) Following drug addition, the plates are incubated for an additional 48 h at 37°C, 5 % CO2, 95 % air, and 100 % relative humidity. For adherent cells, the assay is terminated by the addition of cold TCA. Cells are fixed in situ by the gentle addition of 50 μl of cold 50 % (w/v) TCA (final concentration, 10 % TCA) and incubated for 60 minutes at 4°C. The supernatant is discarded, and the plates are washed five times with tap water and air dried. Sulforhodamine B (SRB) solution (100 μl) at 0.4 % (w/v) in 1 % acetic acid is added to each well, and plates are incubated for 10 minutes at room temperature. After staining, unbound dye is removed by washing five times with 1 % acetic acid and the plates are air dried. Bound stain is subsequently solubilized with 10 mM trizma base, and the absorbance is read on an automated plate reader at a wavelength of 515 nm. For suspension cells, the methodology is the same except that the assay is terminated by fixing settled cells at the bottom of the wells by g ently adding 50 μl of 80 % TCA (final concentration, 16 % TCA). Using the seven absorbance measurements [time zero, (Tz), control growth, (C), and test growth in the presence of drug at the five concentration levels (Ti)], the percentage growth is calculated at each of the drug concentrations levels. Percentage growth inhibition is calculated as:
(§6) [(Ti-Tz)/(C-Tz)] x 100 for concentrations for which Ti>/=Tz
(§7) [(Ti-Tz)/Tz] x 100 for concentrations for which Ti<Tz.
(§8) Three dose response parameters are calculated for each experimental agent. Growth inhibition of […]
(§9) resulting in a 50% reduction in the net protein increase (as measured by SRB staining) in control cells during the drug incubation. The drug concentration resulting in total growth inhibition […]
(§10) (TGI) is calculated from Ti = Tz.

The test system of test [1] is prostate cancer cell lines. The test is described as follows: NCI 60 screen, sub-panel mean. Format: cell-based, human. To be noted: NCI-60, prostate cancer sub-panel. The protocol: as §1, §2, §3, §4, §5, §6, §7, §8, §9, §10
The test system of a further test is renal cancer cell lines. Put plainly: NCI 60 screen, sub-panel mean. It is filed as cell-based, human. To be noted: NCI-60, renal cancer sub-panel. The protocol: as §1, §2, §3, §4, §5, §6, §7, §8, §9, §10
The test system of test [2] is non-small cell lung cancer cell lines. The test is described as follows: NCI 60 screen, sub-panel mean. To be noted: NCI-60, non-small cell lung cancer sub-panel. It is filed as cell-based, human. The protocol:
as §1, §2, §3, §4, §5, §6, §7, §8, §9, §10

Test [3] has as its system ovarian cancer cell lines. Put plainly: NCI 60 screen, sub-panel mean. Format: cell-based, human. To be noted: NCI-60, ovarian cancer sub-panel. The protocol:
as §1, §2, §3, §4, §5, §6, §7, §8, §9, §10

In another test the test system is leukemia cell lines. Put plainly: NCI 60 screen, sub-panel mean. Particulars: NCI-60, leukemia sub-panel. It is filed as cell-based, human. The protocol:
as §1, §2, §3, §4, §5, §6, §7, §8, §9, §10

For a further test, the system named is colon cancer cell lines. Put plainly: NCI 60 screen, sub-panel mean. It is filed as cell-based, human. To be noted: NCI-60, colon cancer sub-panel. The protocol:
as §1, §2, §3, §4, §5, §6, §7, §8, §9, §10

The next test deals with T-47D cells. The test is described as follows: MTT assay IC50 over T-47D. Particulars: Homo sapiens, T47D. It is filed as cell-based. The protocol:
In the beginning, the IC50 of compound 12e over T-47D (American Type Culture Collection, US) was determined using MTT assay, and the same procedure was applied for A375 and SK-MEL-5. T-47D cells (10^5 cells) were treated with 12e (5 µM) and incubated for 48h. Cells were collected by trypsinization, washed two times with ice-cold PBS, and re-suspended in 60% cold ethanol and kept at 4 °C for 60 min. PBS was used to wash the fixed cells and was re-suspended in 1.0 mL of PBS containing 10µg/mL propidium iodide and 50 µg/mL RNAase A. Cells were incubated in the dark at 37 °C for 20min; then, DNA contents were analyzed using flow cytometric analysis using an FL2 (λex/em 535/617 nm) signal detector. For each sample, 12,000 events were acquired. The cell cycle distribution was obtained by using ACEA NovoExpress^TM software.
(Tetrazolium dyes change colour on reduction, which living cells bring about.)

A further test deals with NCI 60 cancer cell lines. The test is described as follows: NCI 60 cell line screen, mean over panel. Format: cell-based, human. The protocol:
as §1, §2
The human tumor cell lines of the cancer screening panel are grown in RPMI 1640 mediu m containing 5% fetal bovine serum and 2 mM L-glutamine. […]
Following drug addition, the plates are incubated for an additional 48 h at 37°C, 5 % CO2, 95 % air, and 100 % relative humidity. […] Bound stain is subsequently solubilized with 10 mM trizma base, and the absorbance is read on an automated plate reader at a wavelength of 515 nm. […] Using the seven absorbance measurements [time zero, (Tz), control growth, (C), and test growth in the presence of drug at the five concentration levels (Ti)], the percentage growth is calculated at each of the drug concentrations levels. Percentage growth inhibition is calculated as: […]
Three dose response parameters are calculated for each experimental agent. […]
resulting in a 50% reduction in the net protein increase (as measured by SRB staining) in control cells during the drug incubation. […]
as §10

Sequence of CRAF (P04049 whole entry): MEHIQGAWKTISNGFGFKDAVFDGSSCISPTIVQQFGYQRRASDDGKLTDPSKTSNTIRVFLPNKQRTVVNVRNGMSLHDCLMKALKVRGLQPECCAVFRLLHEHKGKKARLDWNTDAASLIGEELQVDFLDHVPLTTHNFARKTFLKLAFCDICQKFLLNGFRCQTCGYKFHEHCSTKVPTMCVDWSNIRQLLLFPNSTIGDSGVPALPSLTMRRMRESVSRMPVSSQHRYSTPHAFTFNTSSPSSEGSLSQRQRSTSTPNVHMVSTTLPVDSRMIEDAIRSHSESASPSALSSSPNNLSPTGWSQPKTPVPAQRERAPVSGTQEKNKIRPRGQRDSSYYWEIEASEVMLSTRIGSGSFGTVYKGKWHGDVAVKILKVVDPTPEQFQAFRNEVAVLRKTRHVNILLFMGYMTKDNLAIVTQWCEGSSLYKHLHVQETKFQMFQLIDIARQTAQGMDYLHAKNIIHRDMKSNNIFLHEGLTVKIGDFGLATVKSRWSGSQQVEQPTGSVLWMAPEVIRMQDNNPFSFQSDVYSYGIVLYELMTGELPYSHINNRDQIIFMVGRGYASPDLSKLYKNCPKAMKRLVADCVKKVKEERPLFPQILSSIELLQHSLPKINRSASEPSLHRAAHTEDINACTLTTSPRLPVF

By IC50 is commonly meant the concentration that gives 50% inhibition. Turning to `Cc1ccc(S(=O)(=O)NCCNc2nccc(-n3cnc4ccccc43)n2)cc1` [12g, N-(2-((4-(1H-benzo [d]imidazol-1-yl)pyrimidin-2-yl)amino)ethyl)-4-methyl benzenesulfonamide], at CRAF (read-out: IC50 CRAF), the IC50 came to 1480 ± 99 nM. In addition, the mean percent inhibition entry in the test on breast cancer cell lines is reported as “around 40%”; in [1], “around 20%”; with renal cancer cell lines it was “around 30%”; in test [2], 30%; in test [3], “around 25%”.
For the compound `O=S(=O)(NCCCNc1nccc(-n2cnc3ccccc32)n1)c1ccc(C(F)(F)F)cc1` [12l, N-(3-((4-(1H-benzo [d]imidazol-1-yl)pyrimidin-2-yl)amino)propyl)-4-(trifluoromethyl) benzenesulfonamide], the IC50 on CRAF (read-out: IC50 CRAF) worked out at 840 ± 76 nM. Also, the mean percent inhibition entry in the test with breast cancer cell lines is on record as “around 40%”; with leukemia cell lines it was 46%; in test [1], “around 20%”; with renal cancer cell lines, “around 30%”; in the test with colon cancer cell lines, 30%; in test [2], 30%. For the same compound, the mean percent inhibition entry in test [3] is “around 25%”.
In the case of `COc1ccc(S(=O)(=O)NCCCNc2nccc(-n3cnc4ccccc43)n2)cc1` [12m, N-(3-((4-(1H-benzo [d]imidazol-1-yl)pyrimidin-2-yl)amino)propyl)-4-methoxy benzenesulfonamide], on CRAF (read-out: IC50 CRAF), the IC50 stood at 960 ± 79 nM.
Still for that read-out and setting: the same measure for `O=S(=O)(NCCNc1nccc(-n2cnc3ccccc32)n1)c1ccc(Br)cc1` [12d, N-(2-((4-(1H-benzo [d]imidazol-1-yl)pyrimidin-2-yl)amino)ethyl)-4-bromobenzenesulfonamide]: 2100 ± 180 nM; for `O=S(=O)(NCCCNc1nccc(-n2cnc3ccccc32)n1)c1ccc(Cl)cc1` [12j, N-(3-((4-(1H-benzo [d]imidazol-1-yl)pyrimidin-2-yl)amino)propyl)-4-chloro benzenesulfonamide]: 1020 ± 77 nM.
Turning to `O=S(=O)(NCCCNc1nccc(-n2cnc3ccccc32)n1)c1ccc(F)cc1` [12i, N-(3-((4-(1H-benzo [d]imidazol-1-yl)pyrimidin-2-yl)amino)propyl)-4-fluorobenzenesulfonamide], the IC50 at CRAF (read-out: IC50 CRAF) turned out to be 980 ± 44 nM. Also, the mean percent inhibition result in the test with breast cancer cell lines is “around 40%”; in the test with leukemia cell lines it was 50%; in test [1] it was “around 20%”; in test [3], “around 25%”.
Consider `O=S(=O)(NCCNc1nccc(-n2cnc3ccccc32)n1)c1ccc(C(F)(F)F)cc1` [12e, N-(2-((4-(1H-benzo [d]imidazol-1-yl)pyrimidin-2-yl)amino)ethyl)-4-(trifluoromethyl)benzenesulfonamide], for which the IC50 in the test with T-47D cells came to 5350 nM; on CRAF (read-out: IC50 CRAF), 1140 ± 88 nM. Also, the “mean percent inhibition over 60-cell line panel” value in the test on NCI 60 cancer cell lines was “around 50%”. For the same compound, the mean percent inhibition entry with breast cancer cell lines is given as “more than 60%”; with leukemia cell lines, 60%; in [1], 40%; in the test on renal cancer cell lines, 45%; in the test with colon cancer cell lines, 40%; in [2], 50%. Also, the mean percent inhibition in test [3] amounted to 40%.
In the case of `O=S(=O)(NCCNc1nccc(-n2cnc3ccccc32)n1)c1ccc(F)cc1` [12b, N-(2-((4-(1H-benzo [d]imidazol-1-yl)pyrimidin-2-yl)amino)ethyl)-4-fluorobenzenesulfonamide], the IC50 at CRAF (read-out: IC50 CRAF) was 1340 ± 190 nM.
The same measure, in the same setting: the figure for `O=S(=O)(NCCCNc1nccc(-n2cnc3ccccc32)n1)c1ccc(Br)cc1` [12k, N-(3-((4-(1H-benzo [d]imidazol-1-yl)pyrimidin-2-yl)amino)propyl)-4-bromo benzenesulfonamide] is 990 ± 85 nM; for `O=S(=O)(NCCNc1nccc(-n2cnc3ccccc32)n1)c1ccc(Cl)cc1` [12c, N-(2-((4-(1H-benzo [d]imidazol-1-yl)pyrimidin-2-yl)amino)ethyl)-4-chlorobenzenesulfonamide] it is 1490 ± 230 nM.
As to `COc1ccc(S(=O)(=O)NCCNc2nccc(-n3cnc4ccccc43)n2)cc1` [12f, N-(2-((4-(1H-benzo [d]imidazol-1-yl)pyrimidin-2-yl)amino)ethyl)-4-methoxy benzenesulfonamide], the 50% inhibitory concentration (IC50) at CRAF (read-out: IC50 CRAF) came out at 1670 ± 210 nM.
The same measure, in the same setting: the same measure for `O=S(=O)(NCCNc1nccc(-n2cnc3ccccc32)n1)c1ccccc1` [12a, N-(2-((4-(1H-benzo [d]imidazol-1-yl)pyrimidin-2-yl)amino)ethyl)benzenesulfonamide]: 2980 ± 210 nM; for `O=S(=O)(NCCCNc1nccc(-n2cnc3ccccc32)n1)c1ccccc1` [12h, N-(3-((4-(1H-benzo [d]imidazol-1-yl)pyrimidin-2-yl)amino)propyl)benzenesulfonamide]: 2140 ± 78 nM.
Take `O=S(=O)(NCCCNc1nccc(-n2cnc3ccccc32)n1)c1cccc2ccccc12` [12n, N-(3-((4-(1H-benzo [d]imidazol-1-yl)pyrimidin-2-yl)amino)propyl)naphthalene-1-sulfonamide]: the IC50 against CRAF (IC50 CRAF) turned out to be 1780 ± 156 nM. In test [1], the mean percent inhibition entry is given as “around 20%”.
